Several values for one entry are separate records, joined by “and”; a condition that tells them apart may be missing. Equal values may be shown once. Toxic doses and inconclusive results are not listed. Rule for the calls: active = survival T/C of 150% or more; inactive = T/C below 125% in these data.
Test system: P388 leukemia ip, CD2F1 mice, survival T/C
Assay: NCI In Vivo Anticancer Drug Screen. Data for tumor model P388 Leukemia (intraperitoneal) in CD2F1 (CDF1) mice
Details: endpoint: median survival time, higher = longer survival
Procedure, shortened: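 Mice carrying the transplanted tumor received test compound or vehicle. Survival was recorded in each group, and the value is the treated-group measurement divided by that of the vehicle-treated control group.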

[1] = dose: 50.0 mg/kg/injection, schedule: Q01DX005 (ip), vehicle: Klucel (hydroxypropylcellulose) (HPC)
[2] = dose: 100.0 mg/kg/injection, schedule: Q01DX005 (ip), vehicle: Klucel (hydroxypropylcellulose) (HPC)
[3] = dose: 200.0 mg/kg/injection, schedule: Q01DX005 (ip), vehicle: Klucel (hydroxypropylcellulose) (HPC)
[4] = dose: 3.12 mg/kg/injection, schedule: Q01DX005 (ip), vehicle: Klucel (hydroxypropylcellulose) (HPC)
[5] = dose: 12.5 mg/kg/injection, schedule: Q01DX005 (ip), vehicle: Klucel (hydroxypropylcellulose) (HPC)
[6] = dose: 60.0 mg/kg/injection, schedule: Q01DX005 (ip), vehicle: Klucel (hydroxypropylcellulose) (HPC)
[7] = dose: 120.0 mg/kg/injection, schedule: Q01DX005 (ip), vehicle: Klucel (hydroxypropylcellulose) (HPC)
[8] = dose: 50.0 mg/kg/injection, schedule: Q01DX009 (ip), vehicle: saline
[9] = dose: 100.0 mg/kg/injection, schedule: Q01DX009 (ip), vehicle: saline
[10] = dose: 200.0 mg/kg/injection, schedule: Q01DX009 (ip), vehicle: saline
[11] = dose: 6.25 mg/kg/injection, schedule: Q01DX009 (ip), vehicle: saline with Tween-80
[12] = dose: 12.5 mg/kg/injection, schedule: Q01DX009 (ip), vehicle: saline with Tween-80
[13] = dose: 25.0 mg/kg/injection, schedule: Q01DX009 (ip), vehicle: saline with Tween-80
[14] = dose: 50.0 mg/kg/injection, schedule: Q01DX009 (ip), vehicle: saline with Tween-80
[15] = dose: 100.0 mg/kg/injection, schedule: Q01DX009 (ip), vehicle: saline with Tween-80
[16] = dose: 60.0 mg/kg/injection, schedule: Q01DX005 (ip), vehicle: saline with Tween-80
[17] = dose: 120.0 mg/kg/injection, schedule: Q01DX005 (ip), vehicle: saline with Tween-80
[18] = dose: 100.0 mg/kg/injection, schedule: Q01DX001 (ip), vehicle: Klucel (hydroxypropylcellulose) (HPC)
[19] = dose: 200.0 mg/kg/injection, schedule: Q01DX001 (ip), vehicle: Klucel (hydroxypropylcellulose) (HPC)

Measured: T/C

CC(=O)Nc1ccccc1NOC(=O)c1ccccc1NC(C)=O
inactive: [1] 91 % of control | [2] 87 % of control | [3] 91 % of control

C=C(C)C1CC=C(C)C(SCCN(CC)CC)C1 (stereo unspecified)
inactive: [1] 104 % of control | [2] 109 % of control | [3] 118 % of control

O=C1CCC(=O)N1CCCN1CCOCC1
inactive: dose: 60.0 mg/kg/injection, schedule: Q01DX005 (ip), vehicle: saline 89 % of control | dose: 120.0 mg/kg/injection, schedule: Q01DX005 (ip), vehicle: saline 88 % of control | dose: 240.0 mg/kg/injection, schedule: Q01DX005 (ip), vehicle: saline 99 % of control

CCC[CH2][Sn]1([CH2]CCC)[O]OC2(CCCCC2)[O]1
inactive: dose: 1.25 mg/kg/injection, schedule: Q01DX009 (ip), vehicle: saline with Tween-80 113 % of control | dose: 2.5 mg/kg/injection, schedule: Q01DX009 (ip), vehicle: saline with Tween-80 109 % of control

CCC(Br)C1C/C=C\CC2OC(C=C=CBr)CC2O1 (stereo unspecified)
inactive: [4] 100 % of control | dose: 3.75 mg/kg/injection, schedule: Q01DX001 (ip), vehicle: Klucel (hydroxypropylcellulose) (HPC) 94 % of control | dose: 6.25 mg/kg/injection, schedule: Q01DX005 (ip), vehicle: Klucel (hydroxypropylcellulose) (HPC) 95 % of control and 98 % of control | dose: 7.5 mg/kg/injection, schedule: Q01DX001 (ip), vehicle: Klucel (hydroxypropylcellulose) (HPC) 90 % of control | [5] 95 % of control and 104 % of control | dose: 15.0 mg/kg/injection, schedule: Q01DX001 (ip), vehicle: Klucel (hydroxypropylcellulose) (HPC) 91 % of control | dose: 25.0 mg/kg/injection, schedule: Q01DX005 (ip), vehicle: Klucel (hydroxypropylcellulose) (HPC) 91 % of control and 100 % of control | dose: 30.0 mg/kg/injection, schedule: Q01DX001 (ip), vehicle: Klucel (hydroxypropylcellulose) (HPC) 91 % of control | [1] 98 % of control | [2] 96 % of control

CCOC(=O)/C=C1\CSC2=NC(c3ccccc3)CN21 (stereo unspecified)
inactive: [6] 94 % of control | [7] 94 % of control | dose: 240.0 mg/kg/injection, schedule: Q01DX005 (ip), vehicle: Klucel (hydroxypropylcellulose) (HPC) 86 % of control

COc1ccc(OC)c(N=Cc2cccs2)c1
inactive: [8] 90 % of control | [9] 100 % of control | [10] 92 % of control

CC1(CO)CSC(Nc2ccc(Cl)c(Cl)c2)=N1 (stereo unspecified)
inactive: dose: 3.12 mg/kg/injection, schedule: Q01DX009 (ip), vehicle: saline with Tween-80 101 % of control | [11] 100 % of control and 98 % of control | [12] 102 % of control | [13] 104 % of control | [14] 100 % of control | [15] 113 % of control | dose: 200.0 mg/kg/injection, schedule: Q01DX009 (ip), vehicle: saline with Tween-80 98 % of control

C=C([Se]c1ccccc1)C(C)(C)C
inactive: [14] 114 % of control | [15] 119 % of control

CN1C(=O)CN=C(c2ccccn2)c2cc(Cl)ccc21
inactive: dose: 75.0 mg/kg/injection, schedule: Q01DX001 (ip), vehicle: saline with Tween-80 104 % of control | dose: 150.0 mg/kg/injection, schedule: Q01DX001 (ip), vehicle: saline with Tween-80 104 % of control | dose: 300.0 mg/kg/injection, schedule: Q01DX001 (ip), vehicle: saline with Tween-80 104 % of control

CC(=O)Nc1ccc(/C=C/c2csnn2)cc1
inactive: [16] 92 % of control | [17] 87 % of control | dose: 240.0 mg/kg/injection, schedule: Q01DX005 (ip), vehicle: saline with Tween-80 92 % of control

CNc1ccc(N=Nc2ccncc2C)cc1C
inactive: dose: 6.25 mg/kg/injection, schedule: Q01DX009 (ip), vehicle: DMSO 89 % of control | dose: 12.5 mg/kg/injection, schedule: Q01DX009 (ip), vehicle: DMSO 88 % of control | dose: 25.0 mg/kg/injection, schedule: Q01DX009 (ip), vehicle: DMSO 87 % of control

COC(=N)N(C)/N=C/c1ccccc1
inactive: [18] 114 % of control | [19] 115 % of control

Nc1ccccc1SC1=C(Cl)C(=O)c2ccccc2C1=O
inactive: [11] 95 % of control | [12] 94 % of control | [13] 103 % of control

O=P(CCCCP(=O)(c1ccccc1)c1ccccc1)(c1ccccc1)c1ccccc1.[Cl][Sn]([Cl])([c]1ccccc1)[c]1ccccc1
inactive: dose: 1.56 mg/kg/injection, schedule: Q01DX005 (ip), vehicle: Klucel (hydroxypropylcellulose) (HPC) 114 % of control | [4] 114 % of control | [5] 115 % of control

C=CCN1C(=O)CS/C1=N\NC(=O)Cc1nc2ccccc2[nH]1
inactive: [18] 101 % of control | [19] 105 % of control | dose: 400.0 mg/kg/injection, schedule: Q01DX001 (ip), vehicle: Klucel (hydroxypropylcellulose) (HPC) 92 % of control

CS(=O)(=O)c1ccccc1NN
inactive: dose: 50.0 mg/kg/injection, schedule: Q01DX009 (ip), vehicle: Klucel (hydroxypropylcellulose) (HPC) 111 % of control | dose: 100.0 mg/kg/injection, schedule: Q01DX009 (ip), vehicle: Klucel (hydroxypropylcellulose) (HPC) 105 % of control | dose: 200.0 mg/kg/injection, schedule: Q01DX009 (ip), vehicle: Klucel (hydroxypropylcellulose) (HPC) 100 % of control

O=[N+]([O-])c1ccc2nnnn2c1
inactive: [8] 100 % of control | [9] 107 % of control | [10] 100 % of control

CCOC(=O)C1C(=O)N(C)C(=O)N1c1ccc(C)cc1 (stereo unspecified)
inactive: [16] 98 % of control | [17] 87 % of control

COc1ccc([B-]23OCC[N+]2(CNC(=O)C2=C(O)C4(O)C(=O)C5=C(O)c6c(O)cccc6C(C)(O)C5CC4C(N(C)C)C2=O)CCO3)cc1 (stereo unspecified)
inactive: [1] 105 % of control | [2] 105 % of control | [3] 105 % of control

CN(C)c1ccc(SC(=S)NCc2ccccc2)cc1
inactive: [6] 88 % of control | [7] 88 % of control

COc1ccccc1C1OC2=C(Nc3ccc(Cl)cc3N2)C1=O (stereo unspecified)
inactive: dose: 7.5 mg/kg/injection, schedule: Q01DX005 (ip), vehicle: Klucel (hydroxypropylcellulose) (HPC) 100 % of control | dose: 15.0 mg/kg/injection, schedule: Q01DX005 (ip), vehicle: Klucel (hydroxypropylcellulose) (HPC) 93 % of control | dose: 30.0 mg/kg/injection, schedule: Q01DX005 (ip), vehicle: Klucel (hydroxypropylcellulose) (HPC) 87 % of control

C/C1=C/C(O)C/C(C)=C\C(O)C(=O)/C=C/C2C(CC1)C2(C)C (stereo unspecified)
inactive: dose: 2.5 mg/kg/injection, schedule: Q01DX005 (ip), vehicle: distilled water + Tween-80 + alcohol 104 % of control | dose: 5.0 mg/kg/injection, schedule: Q01DX005 (ip), vehicle: distilled water + Tween-80 + alcohol 105 % of control | dose: 10.0 mg/kg/injection, schedule: Q01DX005 (ip), vehicle: distilled water + Tween-80 + alcohol 100 % of control | dose: 20.0 mg/kg/injection, schedule: Q01DX005 (ip), vehicle: distilled water + Tween-80 + alcohol 108 % of control
